Numbering of substitutions follows the chain as printed.
What was measured:
[1] = molecular target: T1, WT-PMM2 (Homo sapiens, UniProt O15305); assay: High-throughput differential scanning fluorimetry (DSF) screening, thermal denaturation; type: binding; conditions: 0.08 mg/mL of compound, 4% DMSO, vs DMSO control; read-out: protein Tm is increased (ΔTm)
T1 construct: His6 (N); made in house; host or cells: E. coli BL21 Star DE3
T1 sequence (O15305 1-246): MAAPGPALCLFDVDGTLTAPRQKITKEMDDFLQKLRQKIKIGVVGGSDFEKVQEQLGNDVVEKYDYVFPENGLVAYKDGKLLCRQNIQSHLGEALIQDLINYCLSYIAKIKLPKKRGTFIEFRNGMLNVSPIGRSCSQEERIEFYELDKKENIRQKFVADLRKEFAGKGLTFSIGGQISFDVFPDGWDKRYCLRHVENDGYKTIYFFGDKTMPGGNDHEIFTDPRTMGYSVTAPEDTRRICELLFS
Description: 10,000 molecular compounds from the MyriaScreen (Sigma-Aldrich) diversity collection were screened by determining the stabilization induced by the binding of different ligands (potential pharmacological chaperones) to the purified recombinant protein. The identification of ligands that stabilize WT-PMM2 thermally, was done by monitoring the thermal denaturation. The screening was performed by monitoring a shift in the fluorescence intensity at 610 nm using the LightCycler A480 (Roche).
PMM2 proteins were expressed in E.coli (BL21 Star™DE3 One Shot® Invitrogen). […]
Protein purification was performed using the ÄKTA Prime System (GE Healthcare, Little Chalfont, UK) at 4°C. […] The pure protein concentration was estimated by measuring the absorbance at 280 nm in a Nanodrop spectrophotometer (Thermo Scientific, Waltham, MA, USA) using the theoretical molar extinction coefficient estimated from the amino acid composition of HisPMM2 (23755 M^-1 cm^-1).
10,000 compounds of molecular weight ranging from 220 to 547 Da from the MyriaScreen diversity collection, dissolved in DMSO (Sigma Aldrich, St. Louis, MO, USA) to a final concentration of 2 mg/mL, were screened by DSF for identification of ligands that stabilize WT-PMM2 thermally. […] The experimental unfolding curves were then smoothed, normalized, and analyzed using in-house software. […]

[2] = molecular target: T2, p.Asp65Tyr (Homo sapiens, UniProt O15305, D65Y); assay: Degradation time course (half-life) in prokaryotic transcription-translation-coupled system; type: biochemical; conditions: compound at 80µM
T2 construct: His6 (N); made in house; host or cells: RTS 100 E. coli HY cell-free transcription-translation system
T2 sequence (O15305 1-246 D65Y): T1 sequence (O15305 1-246) with D65Y
Description: In order to deepen in the effect of Compound A on the PMM2 stability, degradation time courses were analyzed on WT protein and folding mutants with residual activity, p.Asp65Tyr, p.Arg162Trp and p.Thr237Met in presence of the compound. Additionally, we included in this assay the dimeric mutant p.Pro113Leu in order to study the effect of the compound on a mutant of this type.
Dimeric PMM2 used for thermal stability analysis was produced by the RTS 100 E. coli HY Kit transcription-translation-coupled system (5 PRIME, Hilden, Germany), following the manufacturer's recommendations. To produce PMM2 proteins, the reaction mix provided by the kit, together with 500 ng of the corresponding expression vector and 1 µl of the compound for reaching a final concentration of 40µM or 80µM or 1µl of DMSO. Reactions were incubated for 30 min at 30°C. The reaction was then stopped by adding 1 µl of DNase (1 mg/mL) and 1 µl of RNase (1 mg/mL). It was then further incubated at 37°C and 1.5 µl aliquots removed at different times. The compound was therefore present during the folding process. Proteins were immunodetected by Western blot and relative amounts of protein were determined by densitometry for the half-life determination.

O=C(Nc1cccc(Cl)c1)N(c1ccccn1)c1ccccn1 [Compound A, 3-(3-Chloro-phenyl)-1,1-di-pyridin-2-yl-urea]
ΔTm at 80 µg/mL [1]: 1.1 °C
half-life increase, ranking among protein/concentration combinations [2]: the one with the higher shift
